# According to paper PMC7724566, “Prospects for Clinical Development of Stat5 Inhibitor IST5-002: High Transcriptomic Specificity in Prostate Cancer and Low Toxicity In Vivo” (Cancers, 2020):
# Assays:
# athymic nude mice = test: Acute toxicity study, plasma biochemistry; format: in vivo; details: for ALT / AST / Albumin / Alk.Ptase / BUN / Bile Acid / Chol / Globulin / TBIL: plasma
# Protocol: The acute toxicity study of the compound IST5 was carried out in athymic nude mice (8 weeks) (Crl:NU/NCr-Foxn1n) of either sex (n = 8/dose group, 4 of each sex). IST5 compound was administered once (0, 10, 30, and 100 mg/kg) via single intra-peritoneal (i.p.) injection, and the mice in the vehicle (0 mg/kg) group received each a single i.p. injection of 0.3% hydroxypropyl cellulose. Plasma samples were analyzed for liver (AST, […], alkaline phosphatase, total bilirubin, bile acid) and kidney functions (BUN, albumin, globulin and albumin-globulin ratio) (Marshfields Labs, WI, USA).
# The following clinical chemistry parameters were measured: Aspartate aminotransferase (AST), alanine aminotransferase (ALT), sorbitol dehydrogenase (SDH), alkaline phosphatase (ALP), γ-glutamyltransferase (GGT), lactate dehydrogenase (LDH), bilirubin (TBIL), protein (TP), glucose (GLU), blood urea nitrogen (BUN), creatinine (CREAT), and electrolytes (Na, K, Cl, Ca, CO2).
# MCM10 = test: qRT-PCR mRNA level; format: cell-based, human; details: CWR22Pc cells, 6 µM vs. vehicle, 3 days
# From the text: (§1) Specifically, significant changes were evident in 21 of 203 genes associated with DNA replication and nuclear division (Figure 3B). Specifically, genes associated with minichromosome maintenance family (MCM2, MCM3, MCM4, MCM5, MCM10) were regulated by both IST5 and shStat5 in PC cells, and were associated with DNA replication and DNA replication initiation process as indicated by the functional module analysis (Figure 3). In addition, suppression of the top genes regulated by IST5 and genetic knockdown of Stat5 was confirmed by quantitative real-time polymerase chain reaction (qRT-PCR) in CWR22Pc cells after 3 days of Stat5 inhibition (Figure 3C). It is important to note that the gene expression changes induced by both shStat5 and IST5 in PC cells described here represent later changes in gene expression networks and the early genes (at 24 h) regulated by shStat5/IST5 might be different.
# (§2) Figure 3 Pathway enrichment analysis of genes regulated similarly by IST vs. genetic knockdown of Stat5 in prostate cancer cells. […] (C), mRNA levels of MCM10 and BRCA2 were reduced, determined by quantitative real-time polymerase chain reaction (qRT-PCR), in CWR22Pc cells upon genetic knockdown of Stat5 by lentiviral expression of shStat5 vs. shCtrl or by treatment with IST5 (6 µM) vs. vehicle for 3 days. […]
# BRCA2 = test: qRT-PCR mRNA level; format: cell-based, human; details: CWR22Pc cells, 6 µM vs. vehicle, 3 days
# From the text: as §1, §2
# Stat5 [1] = test: Ligand-induced Stat5 dimerization, two cell-based assays (summary); set-up: species or system human; details: read-out: IC50, suppression of ligand-induced Stat5 dimerization; both cell-based dimerization assays
# From the text: (§3) Down-regulation of Stat5 phosphorylation by IST5 can theoretically be caused by IST5 blocking Stat5 monomer docking to the activated receptor-Jak2 complex (Figure 1) and/or by IST5 inhibition of Jak2 kinase activity. […] To further investigate whether IST5 is able to disrupt dimerization of Stat5 molecules, we employed two separate cell-based assays. […] Because both phosphorylation and dimerization of Stat5 were inhibited at similar concentrations of IST5, it is difficult to determine whether disruption of Stat5 dimerization by IST5 is caused by suppression of Stat5 phosphorylation or a direct effect of IST5 in hindering Stat5 dimer-formation or both events occurring at the same time in the cell. However, it is known that heteromolecular interactions are easier to disrupt than interactions between two Stat5 monomers implying that the primary mechanism of action of IST5 may be suppression of Stat5 docking to the receptor-kinase complex. It is important to note that bypassing tyrosine kinases responsible for Stat5 phosphorylation by utilizing direct Stat5 inhibitor would be advantageous for therapy development for Stat5-regulated cancers because targeting Stat5 directly is likely to cause less off-target side effects than targeting kinases or cell surface receptors.
# Stat5 [2] = test: Stat5 phosphorylation in cancer cells (summary); format: cell-based, human; details: read-out: IC50, inhibition of Stat5 phosphorylation, range over cell lines
# From the text: as §3
# PC xenograft tumors = tested on: PC xenograft tumors; set-up: method as in PMID 18316550, PMID 23942095, PMID 26362718, PMID 20966544, PMID 20233708; details: cited from earlier work
structure (smiles),measurement,setting,value
O=P(O)(O)OCC1OC(n2cnc3c(NCc4ccccc4)ncnc32)C(O)C1O (stereo not drawn) [IST5],BW,athymic nude mice; single i.p. 10 mg/kg,22.8 ± 0.79 g
same,ALT,athymic nude mice; single i.p. 10 mg/kg,62.1 ± 11.0 U/L
same,AST,athymic nude mice; single i.p. 10 mg/kg,284 ± 78.7 U/L
same,Albumin,athymic nude mice; single i.p. 10 mg/kg,3.25 ± 0.01 g/dL
same,Alk.Ptase,athymic nude mice; single i.p. 10 mg/kg,43.17 ± 3.5 U/L
same,BUN,athymic nude mice; single i.p. 10 mg/kg,27.67 ± 1.4
same,Bile Acid,athymic nude mice; single i.p. 10 mg/kg,0.88 ± 0.40 µmol/dL
same,Chol,athymic nude mice; single i.p. 10 mg/kg,67.80 ± 5.0 mg/dL
same,Globulin,athymic nude mice; single i.p. 10 mg/kg,1.4 ± 0.01
same,TBIL,athymic nude mice; single i.p. 10 mg/kg,0.51 ± 0.10 mg/dL
same,BW,athymic nude mice; single i.p. 30 mg/kg,21.9 ± 089 g
same,ALT,athymic nude mice; single i.p. 30 mg/kg,100 ± 23.9 U/L
same,AST,athymic nude mice; single i.p. 30 mg/kg,488 ± 168 U/L
same,Albumin,athymic nude mice; single i.p. 30 mg/kg,4.16 ± 0.59 g/dL
same,Alk.Ptase,athymic nude mice; single i.p. 30 mg/kg,57.0 ± 6.82 U/L
same,BUN,athymic nude mice; single i.p. 30 mg/kg,29.6 ± 1.79
same,Bile Acid,athymic nude mice; single i.p. 30 mg/kg,3.35 ± 2.87 µmol/dL
same,Chol,athymic nude mice; single i.p. 30 mg/kg,182 ± 57.8 mg/dL
same,Globulin,athymic nude mice; single i.p. 30 mg/kg,1.4 ± 0.08
same,TBIL,athymic nude mice; single i.p. 30 mg/kg,1.16 ± 0.43 mg/dL
same,BW,athymic nude mice; single i.p. 100 mg/kg,22.0 ± 0.97 g
same,HCT,athymic nude mice; single i.p. 100 mg/kg,0.44 ± 0.01 L/L
same,ALT,athymic nude mice; single i.p. 100 mg/kg,73.2 ± 15.4 U/L
same,AST,athymic nude mice; single i.p. 100 mg/kg,377 ± 96.7 U/L
same,Albumin,athymic nude mice; single i.p. 100 mg/kg,3.32 ± 0.15 g/dL
same,Alk.Ptase,athymic nude mice; single i.p. 100 mg/kg,55.8 ± 5.42 U/L
same,BUN,athymic nude mice; single i.p. 100 mg/kg,28.6 ± 1.14
same,Bile Acid,athymic nude mice; single i.p. 100 mg/kg,2.52 ± 1.28 µmol/dL
same,Chol,athymic nude mice; single i.p. 100 mg/kg,89.4 ± 5.91 mg/dL
same,Globulin,athymic nude mice; single i.p. 100 mg/kg,1.28 ± 0.10
same,TBIL,athymic nude mice; single i.p. 100 mg/kg,0.62 ± 0.09 mg/dL
same,mRNA level of MCM10,MCM10,reduced
same,mRNA level of BRCA2,BRCA2,reduced
same,IC50,Stat5 [1],1 to 1.3 µM
same,IC50,Stat5 [2],1.1 to 1.3 µM
same,growth of PC xenograft tumors in mice in vivo,PC xenograft tumors,block growth
